# From patent US8642544B2, “N-terminus conformationally constrained GLP-1 receptor agonist compounds” (Amylin Pharmaceuticals, LLC, priority 2009, dated 2014)
# System: NIH/Swiss female mice
# Test: in vivo basal glucose lowering assay
# Conditions: subcutaneous injection
# Method: Some compounds shown in Table 1 below were analyzed in an in vivo basal glucose lowering assay using the following procedure: A subcutaneous injection of either 200 μl phosphate-buffered saline (PBS) vehicle or test article was given immediately following baseline glucose (t=0) to NIH/Swiss female mice. Tail blood glucose samples were measured at t=2 and 4 hours post dose using a OneTouch® Ultra® (LifeScan, Inc., a Johnson & Johnson Company, Milpitas, Calif.). Body weight was measured daily. Significant test sample effects were identified by ANOVA (p<0.05), followed by Dunnett's post test using GraphPad Prism version 4.00 for Windows (GraphPad Software, San Diego Calif.).
# [1] = Table 1, time in hours, tail blood glucose at t=2 and 4 hours post dose
# [2] = Table 1, result in words (inactive / similar to GLP-1)
SMILES,In Vivo Glucose-Lowering Assay [1],In Vivo Glucose-Lowering Assay [2]
CC[C@H](C)[C@H](NC(=O)[C@H](Cc1ccccc1)NC(=O)[C@H](CC(C)C)NC(=O)[C@H](CCCNC(=N)N)NC(=O)[C@@H](NC(=O)[C@H](C)NC(=O)[C@H](CCC(=O)O)NC(=O)[C@H](CCC(=O)O)NC(=O)[C@H](CCC(=O)O)NC(=O)[C@H](CC(C)C)NC(=O)[C@H](CCC(N)=O)NC(=O)[C@H](CCCCN)NC(=O)[C@H](CO)NC(=O)[C@H](CC(C)C)NC(=O)[C@H](CC(=O)O)NC(=O)[C@H](CO)NC(=O)[C@@H](NC(=O)[C@H](Cc1ccccc1)NC(=O)[C@@H](NC(=O)CNC(=O)[C@@H]1CCCN1C(=O)CNC(=O)[C@@H](N)Cc1c[nH]cn1)[C@@H](C)O)[C@@H](C)O)C(C)C)C(=O)N[C@@H](CCC(=O)O)C(=O)N[C@@H](Cc1c[nH]c2ccccc12)C(=O)N[C@@H](CC(C)C)C(=O)N[C@@H](CCCCN)C(=O)N[C@@H](CCC(N)=O)C(=O)NCC(=O)NCC(=O)N1CCC[C@H]1C(=O)N[C@@H](CO)C(=O)N[C@@H](CCCCN)C(=O)N[C@@H](CCC(=O)O)C(=O)N[C@H](C(=O)N[C@H](C(=O)N[C@@H](CO)C(N)=O)[C@@H](C)CC)[C@@H](C)CC [2B],more than 4 hours,–
CC[C@H](C)[C@H](NC(=O)[C@H](Cc1ccccc1)NC(=O)[C@H](CC(C)C)NC(=O)[C@H](CCCNC(=N)N)NC(=O)[C@@H](NC(=O)[C@H](C)NC(=O)[C@H](CCC(=O)O)NC(=O)[C@H](CCC(=O)O)NC(=O)[C@H](CCC(=O)O)NC(=O)[C@H](CC(C)C)NC(=O)[C@H](CCC(N)=O)NC(=O)[C@H](CCCCN)NC(=O)[C@H](CO)NC(=O)[C@H](CC(C)C)NC(=O)[C@H](CC(=O)O)NC(=O)[C@H](CO)NC(=O)[C@@H](NC(=O)[C@H](Cc1ccccc1)NC(=O)[C@@H](NC(=O)CNC(=O)[C@@H]1CCCCN1C(=O)CNC(=O)[C@@H](N)Cc1c[nH]cn1)[C@@H](C)O)[C@@H](C)O)C(C)C)C(=O)N[C@@H](CCC(=O)O)C(=O)N[C@@H](Cc1c[nH]c2ccccc12)C(=O)N[C@@H](CC(C)C)C(=O)N[C@@H](CCCCN)C(=O)N[C@@H](CCC(N)=O)C(=O)NCC(=O)NCC(=O)N1CCC[C@H]1C(=O)N[C@@H](CO)C(=O)N[C@@H](CCCCN)C(=O)N[C@@H](CCC(=O)O)C(=O)N[C@H](C(=O)N[C@H](C(=O)N[C@@H](CO)C(N)=O)[C@@H](C)CC)[C@@H](C)CC [2F],more than 4 hours,–
CC[C@H](C)[C@H](NC(=O)[C@H](Cc1ccccc1)NC(=O)[C@H](CC(C)C)NC(=O)[C@H](CCCNC(=N)N)NC(=O)[C@@H](NC(=O)[C@H](C)NC(=O)[C@H](CCC(=O)O)NC(=O)[C@H](CCC(=O)O)NC(=O)[C@H](CCC(=O)O)NC(=O)[C@H](CC(C)C)NC(=O)[C@H](CCC(N)=O)NC(=O)[C@H](CCCCN)NC(=O)[C@H](CO)NC(=O)[C@H](CC(C)C)NC(=O)[C@H](CC(=O)O)NC(=O)[C@H](CO)NC(=O)[C@@H](NC(=O)[C@H](Cc1ccccc1)NC(=O)[C@@H](NC(=O)CNC(=O)[C@@H]1C[C@@H](O)CN1C(=O)CNC(=O)[C@@H](N)Cc1c[nH]cn1)[C@@H](C)O)[C@@H](C)O)C(C)C)C(=O)N[C@@H](CCC(=O)O)C(=O)N[C@@H](Cc1c[nH]c2ccccc12)C(=O)N[C@@H](CC(C)C)C(=O)N[C@@H](CCCCN)C(=O)N[C@@H](CCC(N)=O)C(=O)NCC(=O)NCC(=O)N1CCC[C@H]1C(=O)N[C@@H](CO)C(=O)N[C@@H](CCCCN)C(=O)N[C@@H](CCC(=O)O)C(=O)N[C@H](C(=O)N[C@H](C(=O)N[C@@H](CO)C(N)=O)[C@@H](C)CC)[C@@H](C)CC [2I],more than 4 hours,–
CC[C@H](C)[C@H](NC(=O)[C@H](Cc1ccccc1)NC(=O)[C@H](CC(C)C)NC(=O)[C@H](CCCNC(=N)N)NC(=O)[C@@H](NC(=O)[C@H](C)NC(=O)[C@H](CCC(=O)O)NC(=O)[C@H](CCC(=O)O)NC(=O)[C@H](CCC(=O)O)NC(=O)[C@H](CC(C)C)NC(=O)[C@H](CCC(N)=O)NC(=O)[C@H](CCCCN)NC(=O)[C@H](CO)NC(=O)[C@H](CC(C)C)NC(=O)[C@H](CC(=O)O)NC(=O)[C@H](CO)NC(=O)[C@@H](NC(=O)[C@H](Cc1ccccc1)NC(=O)[C@@H](NC(=O)[C@H]1CCCN(C(=O)[C@@H]2CCCN(C(=O)[C@H](C)NC(=O)[C@@H](N)Cc3c[nH]cn3)C2)C1)[C@@H](C)O)[C@@H](C)O)C(C)C)C(=O)N[C@@H](CCC(=O)O)C(=O)N[C@@H](Cc1c[nH]c2ccccc12)C(=O)N[C@@H](CC(C)C)C(=O)N[C@@H](CCCCN)C(=O)N[C@@H](CCC(N)=O)C(=O)NCC(=O)NCC(=O)N1CCC[C@H]1C(=O)N[C@@H](CO)C(=O)N[C@@H](CCCCN)C(=O)N[C@@H](CCC(=O)O)C(=O)N[C@H](C(=O)N[C@H](C(=O)N[C@@H](CO)C(N)=O)[C@@H](C)CC)[C@@H](C)CC [15A],–,inactive
CC[C@H](C)[C@H](NC(=O)[C@H](Cc1ccccc1)NC(=O)[C@H](CC(C)C)NC(=O)[C@H](CCCNC(=N)N)NC(=O)[C@@H](NC(=O)[C@H](C)NC(=O)[C@H](CCC(=O)O)NC(=O)[C@H](CCC(=O)O)NC(=O)[C@H](CCC(=O)O)NC(=O)[C@H](CC(C)C)NC(=O)[C@H](CCC(N)=O)NC(=O)[C@H](CCCCN)NC(=O)[C@H](CO)NC(=O)[C@H](CC(C)C)NC(=O)[C@H](CC(=O)O)NC(=O)[C@H](CO)NC(=O)[C@@H](NC(=O)[C@H](Cc1ccccc1)NC(=O)[C@@H](NC(=O)CNC(=O)[C@H]1CCCN(C(=O)[C@@H]2CCCN(C(=O)[C@@H](N)Cc3c[nH]cn3)C2)C1)[C@@H](C)O)[C@@H](C)O)C(C)C)C(=O)N[C@@H](CCC(=O)O)C(=O)N[C@@H](Cc1c[nH]c2ccccc12)C(=O)N[C@@H](CC(C)C)C(=O)N[C@@H](CCCCN)C(=O)N[C@@H](CCC(N)=O)C(=O)NCC(=O)NCC(=O)N1CCC[C@H]1C(=O)N[C@@H](CO)C(=O)N[C@@H](CCCCN)C(=O)N[C@@H](CCC(=O)O)C(=O)N[C@H](C(=O)N[C@H](C(=O)N[C@@H](CO)C(N)=O)[C@@H](C)CC)[C@@H](C)CC [15C],–,inactive
CC[C@H](C)[C@H](NC(=O)[C@H](Cc1ccccc1)NC(=O)[C@H](CC(C)C)NC(=O)[C@H](CCCNC(=N)N)NC(=O)[C@@H](NC(=O)[C@H](C)NC(=O)[C@H](CCC(=O)O)NC(=O)[C@H](CCC(=O)O)NC(=O)[C@H](CCC(=O)O)NC(=O)[C@H](CC(C)C)NC(=O)[C@H](CCC(N)=O)NC(=O)[C@H](CCCCN)NC(=O)[C@H](CO)NC(=O)[C@H](CC(C)C)NC(=O)[C@H](CC(=O)O)NC(=O)[C@H](CO)NC(=O)[C@@H](NC(=O)[C@H](Cc1ccccc1)NC(=O)[C@@H](NC(=O)CNC(=O)[C@@H]1CCCN(C(=O)[C@H]2CCCN(C(=O)[C@@H](N)Cc3c[nH]cn3)C2)C1)[C@@H](C)O)[C@@H](C)O)C(C)C)C(=O)N[C@@H](CCC(=O)O)C(=O)N[C@@H](Cc1c[nH]c2ccccc12)C(=O)N[C@@H](CC(C)C)C(=O)N[C@@H](CCCCN)C(=O)N[C@@H](CCC(N)=O)C(=O)NCC(=O)NCC(=O)N1CCC[C@H]1C(=O)N[C@@H](CO)C(=O)N[C@@H](CCCCN)C(=O)N[C@@H](CCC(=O)O)C(=O)N[C@H](C(=O)N[C@H](C(=O)N[C@@H](CO)C(N)=O)[C@@H](C)CC)[C@@H](C)CC [15D],–,inactive
